# Laboratory results from ChEMBL document CHEMBL3400036, “Novel 4-substituted-N,N-dimethyltetrahydronaphthalen-2-amines: synthesis, affinity, and in silico docking studies at serotonin 5-HT2-type and histamine H1 G protein-coupled receptors” (Bioorg Med Chem, 2015).
# Key:
# Assay type in all cases: cell-based
# [1] = target: 5-hydroxytryptamine receptor 2B (Homo sapiens, UniProt P41595); assay: Displacement of [3H]Mesulergine from human 5-HT2B receptor expressed in HEK293 cells by scintillation counting analysis
# Chain of 5-hydroxytryptamine receptor 2B (P41595 whole entry): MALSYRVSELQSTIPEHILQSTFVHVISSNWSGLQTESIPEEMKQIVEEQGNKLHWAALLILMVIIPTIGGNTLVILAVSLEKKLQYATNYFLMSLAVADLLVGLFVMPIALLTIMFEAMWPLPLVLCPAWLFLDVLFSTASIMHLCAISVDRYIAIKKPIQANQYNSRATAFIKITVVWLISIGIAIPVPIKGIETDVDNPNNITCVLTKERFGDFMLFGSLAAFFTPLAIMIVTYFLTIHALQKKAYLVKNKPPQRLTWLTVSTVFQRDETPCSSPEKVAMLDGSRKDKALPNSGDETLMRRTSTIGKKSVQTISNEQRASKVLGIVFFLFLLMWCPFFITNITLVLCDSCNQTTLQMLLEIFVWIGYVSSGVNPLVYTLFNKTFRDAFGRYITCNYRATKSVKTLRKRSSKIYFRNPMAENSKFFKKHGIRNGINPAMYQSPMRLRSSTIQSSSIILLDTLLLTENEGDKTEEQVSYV
# [2] = target: T1, 5-hydroxytryptamine receptor 2C (Homo sapiens, UniProt P28335); assay: Displacement of [3H]Mesulergine from human 5-HT2C-INI receptor expressed in HEK293 cells by scintillation counting analysis
# T1 sequence (P28335 whole entry): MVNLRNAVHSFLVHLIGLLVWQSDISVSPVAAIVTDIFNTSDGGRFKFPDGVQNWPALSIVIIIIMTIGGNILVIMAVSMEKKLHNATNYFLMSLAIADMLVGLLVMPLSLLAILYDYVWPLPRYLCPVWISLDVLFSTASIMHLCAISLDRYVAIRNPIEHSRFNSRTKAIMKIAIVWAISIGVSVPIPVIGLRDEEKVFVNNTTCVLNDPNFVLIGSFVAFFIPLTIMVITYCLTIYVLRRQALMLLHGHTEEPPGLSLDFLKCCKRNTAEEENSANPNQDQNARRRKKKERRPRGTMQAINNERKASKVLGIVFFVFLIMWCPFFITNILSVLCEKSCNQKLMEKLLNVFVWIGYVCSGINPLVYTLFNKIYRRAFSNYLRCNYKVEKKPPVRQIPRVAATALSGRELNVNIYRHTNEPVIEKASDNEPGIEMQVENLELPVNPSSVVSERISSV
# [3] = target: 5-hydroxytryptamine receptor 2A (Homo sapiens, UniProt P28223); assay: Displacement of [3H]Ketanserin from human 5-HT2A receptor expressed in HEK293 cells by scintillation counting analysis
# Chain of 5-hydroxytryptamine receptor 2A (P28223 whole entry): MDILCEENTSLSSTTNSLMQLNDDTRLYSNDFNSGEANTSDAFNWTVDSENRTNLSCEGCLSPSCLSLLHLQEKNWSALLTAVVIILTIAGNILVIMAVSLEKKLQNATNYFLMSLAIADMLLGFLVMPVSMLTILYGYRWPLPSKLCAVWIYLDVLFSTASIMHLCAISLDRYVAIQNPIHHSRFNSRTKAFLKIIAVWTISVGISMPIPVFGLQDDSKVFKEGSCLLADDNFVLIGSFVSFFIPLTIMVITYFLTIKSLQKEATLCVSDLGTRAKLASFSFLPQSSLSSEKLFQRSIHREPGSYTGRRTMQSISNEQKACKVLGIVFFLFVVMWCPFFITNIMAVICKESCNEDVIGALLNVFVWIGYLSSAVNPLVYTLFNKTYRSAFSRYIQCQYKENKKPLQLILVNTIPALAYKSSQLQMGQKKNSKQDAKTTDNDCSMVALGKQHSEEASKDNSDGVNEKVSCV
SMILES,Ki [1] [nM],Ki [2] [nM],Ki [3] [nM]
Cc1ccccc1[C@@H]1C[C@@H](N(C)C)Cc2ccccc21,6000,2000,700
CN(C)[C@@H]1Cc2ccccc2[C@@H](c2ccccc2)C1,94,–,100
CN(C)[C@@H]1Cc2ccccc2[C@@H](c2ccc(F)cc2)C1,400,68,140
CN(C)[C@H]1Cc2ccccc2[C@H](c2ccc(F)cc2)C1,66,75,71
CN(C)[C@@H]1Cc2ccccc2[C@@H](C2CCCCC2)C1,20,7,20
CN(C)[C@@H]1Cc2ccccc2[C@@H](c2ccccc2Br)C1,650,70,1100
CN(C)[C@H]1Cc2ccccc2[C@H](c2cccc(Br)c2)C1,40,200,260
CN(C)[C@H]1Cc2ccccc2[C@H](C2CCCCC2)C1,170,30,80
CN(C)[C@@H]1Cc2ccccc2[C@@H](c2ccccc2Cl)C1,300,290,2400
CN(C)[C@H]1Cc2ccccc2[C@H](c2cccc(C(F)(F)F)c2)C1,200,230,1300
CN(C)[C@@H]1Cc2ccccc2[C@@H](C2CCCCCCC2)C1,10,–,–
CN(C)[C@@H]1Cc2ccccc2[C@@H](c2cccc(C(F)(F)F)c2)C1,60,10,80
CN(C)[C@H]1Cc2ccccc2[C@H](c2cccc(Cl)c2)C1,50,[…],[…]
CN(C)[C@@H]1Cc2ccccc2[C@@H](c2cccc(Cl)c2)C1,30,[…],[…]
CN(C)[C@H]1Cc2ccccc2[C@H](c2ccccc2Br)C1,4100,78,760
CN(C)[C@@H]1Cc2ccccc2[C@@H](c2ccc(Cl)cc2)C1,300,120,250

SMILES,Ki [1] [nM],Ki [2] [nM],Ki [3] [nM]
CN(C)[C@@H]1Cc2ccccc2[C@@H](c2ccc(Br)cc2)C1,210,100,220
CN(C)[C@@H]1Cc2ccccc2[C@@H](c2cccc([N+](=O)[O-])c2)C1,70,10,74
CN(C)[C@H]1Cc2ccccc2[C@H](c2cccc(F)c2)C1,110,200,–
CN(C)[C@H]1Cc2ccccc2[C@H](c2cccc(-c3ccccc3)c2)C1,200,1000,–
CN(C)[C@H]1Cc2ccccc2[C@H](c2ccccc2Cl)C1,710,50,2800
CN(C)[C@@H]1Cc2ccccc2[C@@H](c2cccc(-c3ccccc3)c2)C1,73,5,–
CN(C)[C@@H]1Cc2ccccc2[C@@H](c2cccc(Br)c2)C1,8,4,20
CN(C)[C@H]1Cc2ccccc2[C@H](c2ccc(Br)cc2)C1,30,70,60
CN(C)[C@H]1Cc2ccccc2[C@H](c2cccc([N+](=O)[O-])c2)C1,20,120,500
CN(C)[C@H]1Cc2ccccc2[C@H](C2CCCCCCC2)C1,40,–,–
Cc1ccccc1[C@H]1C[C@H](N(C)C)Cc2ccccc21,800,1600,1000
CN(C)[C@H]1Cc2ccccc2[C@H](c2ccccc2)C1,240,–,470
CN(C)[C@H]1Cc2ccccc2[C@H](c2ccc(C(F)(F)F)cc2)C1,250,–,–
CN(C)[C@H]1Cc2ccccc2[C@H](c2ccc(Cl)cc2)C1,80,55,50
CN(C)[C@@H]1Cc2ccccc2[C@@H](c2cccc(F)c2)C1,70,43,–
